# Assay results: patent publication US10272088B2, “FAS inhibitors and methods associated therewith” (Wake Forest University Health Sciences, priority 2014, dated 2019)
# Entries after “also recorded” stand apart in the source; their conditions may differ.
# Legend:
# [1] = Solubility/aggregation of ICG in PBS
# FASN = FASN (Homo sapiens, UniProt P49327); test: 14C-acetate incorporation study (FASN inhibition); conditions: PC3 cells
# Description: Next, 1 μCi of ^14C-acetate will be added to the cells and be incubated for an additional 2 h. After washing cells with PBS/EDTA, the fatty acids will be extracted with chloroform/methanol (1:1) and quantified by scintillation counting using standard protocols.
# PC3 cells = test: Seahorse Mito Stress test, oxygen consumption rate; conditions: Orlistat 50 μM, 12 hours
# Description: PC3 cells were seeded into 24-well XF analysis microplates. The cells were the treated with vehicle (•) or Orlistat (50 μM. ? ) for 12 hours before analysis, according to Seahorse protocols. Oxygen consumption rate (OCR), a measure of mitochondrial capacity, was determined using a Seahorse Mito Stress test on a Seahorse XF24 extracellular flux analyzer.
# [2] = cited from earlier work
# [3] = test system: PC3 prostate, RKO colorectal, and MDA-MB-231 breast cancer cells; test: In vitro cytotoxicity, WST-8 assay; conditions: Nano-Orl (PBA ligand) dosed equivalent to 25 m Orlistat, 24 h + 24 h
# Description: Media alone or containing experimental or control agents was refreshed after 24 h and allowed to incubate for 24 additional hours. Cytotoxicity was then evaluated using the WST-8 assay (Dojindo, Rockville, Md.).
# cells = test: Cytotoxicity after pre-incubation in PBS (entrapment/hydrolytic stability); format: cell-based; conditions: pre-incubated in PBS prior to incubating with cells
# Chain of FASN (P49327 whole entry): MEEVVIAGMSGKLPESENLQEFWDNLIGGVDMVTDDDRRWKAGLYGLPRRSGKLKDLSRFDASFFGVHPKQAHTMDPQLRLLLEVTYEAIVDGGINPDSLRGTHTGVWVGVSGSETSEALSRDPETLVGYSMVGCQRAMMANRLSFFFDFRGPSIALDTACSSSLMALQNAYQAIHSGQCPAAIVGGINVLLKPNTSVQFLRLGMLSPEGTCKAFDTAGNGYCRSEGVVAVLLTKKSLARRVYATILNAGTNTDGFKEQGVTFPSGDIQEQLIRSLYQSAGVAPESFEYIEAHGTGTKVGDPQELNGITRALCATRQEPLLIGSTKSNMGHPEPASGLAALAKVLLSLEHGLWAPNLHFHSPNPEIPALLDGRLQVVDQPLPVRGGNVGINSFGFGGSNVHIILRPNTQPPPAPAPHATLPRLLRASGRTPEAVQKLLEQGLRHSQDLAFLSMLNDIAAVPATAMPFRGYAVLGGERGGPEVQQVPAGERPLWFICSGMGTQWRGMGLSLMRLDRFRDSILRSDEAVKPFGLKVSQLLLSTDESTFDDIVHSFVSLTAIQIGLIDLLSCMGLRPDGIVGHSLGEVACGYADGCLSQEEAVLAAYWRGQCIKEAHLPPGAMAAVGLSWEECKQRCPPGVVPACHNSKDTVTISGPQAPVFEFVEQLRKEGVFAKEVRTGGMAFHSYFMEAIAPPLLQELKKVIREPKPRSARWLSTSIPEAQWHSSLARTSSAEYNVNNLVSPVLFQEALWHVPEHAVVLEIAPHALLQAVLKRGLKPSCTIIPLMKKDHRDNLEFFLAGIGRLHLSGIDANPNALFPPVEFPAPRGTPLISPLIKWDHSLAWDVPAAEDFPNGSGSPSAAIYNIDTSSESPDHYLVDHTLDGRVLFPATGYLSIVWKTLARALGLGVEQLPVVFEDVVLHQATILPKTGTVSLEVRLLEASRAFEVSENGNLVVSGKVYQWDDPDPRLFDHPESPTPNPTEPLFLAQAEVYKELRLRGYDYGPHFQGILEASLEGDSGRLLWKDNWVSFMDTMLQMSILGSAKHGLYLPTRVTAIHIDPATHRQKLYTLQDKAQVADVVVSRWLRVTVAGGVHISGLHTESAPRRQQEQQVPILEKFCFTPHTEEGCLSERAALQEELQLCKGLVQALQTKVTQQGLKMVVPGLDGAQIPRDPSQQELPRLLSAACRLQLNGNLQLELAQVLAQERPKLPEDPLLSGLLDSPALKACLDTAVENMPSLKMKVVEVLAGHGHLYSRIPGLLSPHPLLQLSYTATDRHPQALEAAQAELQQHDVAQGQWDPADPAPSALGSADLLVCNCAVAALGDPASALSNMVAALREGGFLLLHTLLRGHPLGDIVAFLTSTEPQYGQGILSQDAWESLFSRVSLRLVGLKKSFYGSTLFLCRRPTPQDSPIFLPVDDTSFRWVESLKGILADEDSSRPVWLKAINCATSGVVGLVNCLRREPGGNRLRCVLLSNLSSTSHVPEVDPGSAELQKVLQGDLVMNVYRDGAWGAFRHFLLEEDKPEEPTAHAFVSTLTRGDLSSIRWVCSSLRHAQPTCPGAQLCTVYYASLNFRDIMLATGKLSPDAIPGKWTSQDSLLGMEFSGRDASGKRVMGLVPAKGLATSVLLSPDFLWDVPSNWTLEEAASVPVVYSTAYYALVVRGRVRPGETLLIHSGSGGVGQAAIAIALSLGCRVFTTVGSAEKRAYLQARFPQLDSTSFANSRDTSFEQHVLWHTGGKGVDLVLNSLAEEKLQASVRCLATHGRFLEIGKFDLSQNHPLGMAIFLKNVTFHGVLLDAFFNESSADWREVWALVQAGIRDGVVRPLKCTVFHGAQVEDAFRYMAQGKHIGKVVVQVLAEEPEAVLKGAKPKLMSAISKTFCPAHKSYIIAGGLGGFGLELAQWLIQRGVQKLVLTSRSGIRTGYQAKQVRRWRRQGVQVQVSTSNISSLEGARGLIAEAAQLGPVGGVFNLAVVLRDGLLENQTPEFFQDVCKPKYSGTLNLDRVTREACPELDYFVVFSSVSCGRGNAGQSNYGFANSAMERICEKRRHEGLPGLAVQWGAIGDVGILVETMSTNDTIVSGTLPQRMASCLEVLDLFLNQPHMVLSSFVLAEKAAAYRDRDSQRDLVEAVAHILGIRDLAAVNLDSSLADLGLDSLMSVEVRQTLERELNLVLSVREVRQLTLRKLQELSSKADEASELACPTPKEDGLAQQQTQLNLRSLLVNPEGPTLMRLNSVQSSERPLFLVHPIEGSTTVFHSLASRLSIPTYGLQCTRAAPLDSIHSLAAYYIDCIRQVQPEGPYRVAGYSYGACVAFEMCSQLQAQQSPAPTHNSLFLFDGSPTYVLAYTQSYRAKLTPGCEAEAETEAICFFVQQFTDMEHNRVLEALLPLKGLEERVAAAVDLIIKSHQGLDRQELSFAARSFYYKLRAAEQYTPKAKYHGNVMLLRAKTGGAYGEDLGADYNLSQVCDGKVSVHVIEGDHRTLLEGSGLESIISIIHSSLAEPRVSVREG
smiles,measurement,setting,value
"CC1(C)C(/C=C/C=C/C=C/C=C2\N(CCCCS(=O)(=O)O)c3ccc4ccccc4c3C2(C)C)=[N+](CCCCS(=O)(=O)[O-])c2ccc3ccccc3c21 [ICG, indocyanine green]",solubility in PBS,[1],not soluble in PBS; also recorded: rapidly aggregates in PBS
CCCCCCCCCCCCCCOc1ccc(C(=O)O)o1 [TOFA],14C-acetate incorporation into lipids (FASN inhibition),FASN,inhibited FASN mediated incorporation of acetate in lipids
CCCCCCCCCCC[C@@H](C[C@@H]1OC(=O)[C@H]1CCCCCC)OC(=O)[C@H](CC(C)C)NC=O [Orlistat],mitochondrial capacity (oxygen consumption rate),PC3 cells,decreases mitochondrial capacity; also recorded: negatively impacts mitochondrial capacity
same,tumor growth in vivo,[2]; compared to a sham control,inhibits tumor growth in vivo
same,bioavailability,[2]; in vivo,poor bioavailability
same,viability relative to the NP vehicle media control,[3],consistent with free Orlistat
same,cytotoxicity after pre-incubation in PBS,cells,rendered ineffective; also recorded: dramatically reduces its efficacy
